From patent publication US10184129B2, “Method and compositions to promote plant growth in metal contaminated environments” (The Regents of the University of California, priority 2011, dated 2019)
Entries after “also recorded” stand apart in the source; their conditions may differ.

Tested on: Col-0 wt and als7-1/swa2-2 roots
Assay: Root growth of seedlings in a hydroponic environment supplemented with AlCl3 (pH 4.2)
Assay type: in vivo, Arabidopsis
Conditions: for increase in root growth: pH 4.2
Procedure: Seedlings of Col-0 wt and als7-1/swa2-2 were grown for 7 d hydroponically either in the absence or presence 25 μM AlCl3 (pH 4.2), after which root tissue was collected for analysis of spermine content by HPLC. […] Seedlings of Col-0 wt and als7-1/swa2-2 were grown in a hydroponic environment either in the absence or presence of 25 μM AlCl3 (pH 4.2) with or without 25 μM spermine. After 7 d growth, root length was measured for all treatments, with mean±SE values determined from 30 roots of each. […] Seedlings of Col-0 wt were grown either in the absence or presence of 1.5 mM DEMO in a hydroponic environment supplemented with increasing concentrations of AlCl3 (pH 4.2). After 7 d, root length was measured for all treatments, with mean±SE values determined from 30 roots of each. […] Seedlings of Col-0 wt were grown hydroponically either in the absence or presence of 25 μM spermine for 5 d after which the samples were transferred to a solution with or without 25 μM AlCl3 (pH 4.2) containing either 0 or 25 μM spermine. Following 2 d of growth, root tissue was collected and treated for measurement of Al content by ICP-OES.
For all growth experiments performed, Col-0 wt and mutant seeds were surface-sterilized with household bleach and cold stratified for 4 d at 4° C. in the dark for synchronization of germination. Seeds were subsequently suspended in 0.15% (w/v) agarose and for planting on either soaked gel plates or hydroponic plates. Further description of the growth experiments can be found in Larsen, P. B., Geisler, M. J. B., Jones, C. A., Williams, K. M., and Cancel, J. D. (2005), ALS3 encodes a phloem-localized ABC transporter-like protein that is required for aluminum tolerance in Arabidopsis. Plant J. 41, 353-63. All growth analyses were done in a Percival 136LLVL plant growth chamber under a 24 hr light cycle at 20° C. Adult plants were grown in soil under a 24 hr light cycle at 20° C. in a plant growth room supplemented with Sylvania Gro-Lite® fluorescent bulbs.

Question: For `NCCCNCCCCNCCCN` [spermine], which “root growth in the presence of Al (in words)” value (Col-0 wt and als7-1/swa2-2 seedlings, 25 μM spermine, 25 μM AlCl3 pH 4.2, hydroponic, 7 d) is on record?
Answer: increases root growth; also recorded: substantial increase in root growth

Question: What about the “increase in root growth” value (Col-0 wt, 25 μM spermine, 25 or 50 μM AlCl3, hydroponic, 7 d) of the same compound?
Answer: ≥ 6 fold

Question: And the “root growth compared to untreated controls (in words)” value (Col-0 wt, spermine added, 25 or 50 μM AlCl3, hydroponic)?
Answer: remained significantly inhibited

Question: And the “increase in root growth” value (als7-1/swa2-2, 25 μM spermine, 25 or 50 μM AlCl3, hydroponic, 7 d)?
Answer: ≥ 6 fold

Question: And the “root growth in the presence of Al (in words)” value (als7-1/swa2-2, spermine added, 25 or 50 μM AlCl3, hydroponic)?
Answer: almost full restoration
